Assay results as given in patent US20210017206A1, “PYRIDINONE AND PYRIMIDINONE PHOSPHATES AND BORONATES USEFUL AS ANTIBACTERIAL AGENTS” (Pfizer Inc., priority 2018, published 2021).
Values after ≈ are worked out from the molar mass of the structure shown.

Assays:
[1] = tested on: Pseudomonas aeruginosa UI-18, wild-type (PA-7); assay: MIC determination (CLSI), PA-7; type: cell-based; details: lower of duplicate values
Protocol: (§1) B) MIC determinations: The in vitro antibacterial activity of parent compounds of those described in the Examples was evaluated by minimum inhibitory concentration (MIC) testing according to Clinical and Laboratory Standards Institute (CLSI). See: Clinical and Laboratory Standards Institute. Methods for Dilution Antimicrobial Susceptibility Tests for Bacteria that Grow Aerobically; Approved Standard-Eighth Edition. CLSI document M7-A8 [ISBN 1-56238-689-1]. Clinical and Laboratory Standards Institute, 940 West Valley Road, Suite 1400, Wayne, Pa. 19087-1898 USA, 2006; also Clinical and Laboratory Standards Institute. Performance Standards for Antimicrobial Susceptibility Testing; Twentieth Informational Supplement. CLSI document M100-S20 [ISBN1-56238-716-2]. Clinical and Laboratory Standards Institute.
(§2) The MIC determination is a standard laboratory method for evaluating the antibacterial activity of a compound. The MIC represents the lowest drug concentration that inhibits visible growth of bacteria following overnight incubation. […] Typically, the drug concentration range is broken down into 2-fold increments (e.g. 0.06 μg/mL, 0.12 μg/mL. 0.25 μg/mL, 0.50 μg/mL, 1.0 μg/mL, etc.) and the various drug concentrations are all individually incubated overnight with approximately the same number of bacteria. The MIC is then determined by visually inspecting the drug effect at each concentration, and identifying the lowest drug concentration that has inhibited bacterial growth as compared to the drug free control. Typically, bacteria continue to grow at drug concentrations lower than the MIC and don't grow at concentrations at and above the MIC.
(§3) The MIC values described in Table 2 below were derived from assays wherein each test compound was evaluated in duplicate. In cases where the duplicate values varied by 0-2-fold, the lower of the two values was reported below. Generally speaking, if the duplicate values varied by more than 2-fold, the assay was considered non-valid and was repeated until the variation between duplicate runs was <2-fold. In line with the CLSI guidelines referred to above, both control organisms and reference compounds were utilized in each MIC assay to provide proper quality control. MIC values generated with these control organisms and reference compounds were required to fall within a defined range for the assay to be considered valid and be included herein. Those skilled in the art will recognize that MIC values can and do vary from experiment to experiment. […] While a single MIC is reported for each compound and each microorganism, the reader should not conclude that each compound was only tested once. Several of the compounds were subjected to multiple tests. The data reported in Table 2 is reflective of the compounds relative activity and different MICs may have been generated on these occasions in line with the guidelines described above.
(§4) The following bacterial strains were used in these MIC determinations:
1) Pseudomonas aeruginosa UI-18: Wild-type, labeled as PA-7 in Table 2;

[2] = tested on: Acinetobacter baumannii/haemolyticus, multidrug-resistant clinical isolate (AB-3167); assay: MIC determination (CLSI), AB-3167; type: cell-based; details: lower of duplicate values
Protocol: as §1, §2, §3, §4
2) Acinetobacter baumannii/haemolyticus: Multidrug-resistant clinical isolate labeled as AB-3167 in Table 2;

[3] = target: T1, Pseudomonas aeruginosa LpxC enzyme (Pseudomonas aeruginosa, UniProt P47205); assay: IC50 assay, LpxC enzyme from P. aeruginosa (PA LpxC enzyme IC50); type: biochemical; details: P. aeruginosa LpxC 0.1 nM, 25° C., 1 hour, pH 8.0
T1 construct: made in house; host or cells: E. coli
T1 sequence (P47205 whole entry): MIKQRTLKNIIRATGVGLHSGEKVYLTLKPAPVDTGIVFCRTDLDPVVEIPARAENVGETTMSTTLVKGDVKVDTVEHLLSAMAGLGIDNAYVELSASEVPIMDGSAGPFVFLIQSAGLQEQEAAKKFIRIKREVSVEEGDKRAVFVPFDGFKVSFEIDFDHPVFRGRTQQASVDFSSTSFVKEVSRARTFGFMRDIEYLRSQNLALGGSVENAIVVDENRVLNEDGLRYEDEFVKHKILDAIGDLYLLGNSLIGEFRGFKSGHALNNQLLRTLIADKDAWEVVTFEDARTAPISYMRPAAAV
Protocol: In order to assess the compounds biological activity, selected in vitro assays were conducted on selected compounds. One of the assays measured the compounds ability to disrupt the synthesis of lipopolysaccharide, LPS, which is a component of the outer membrane of Gram-negative bacteria. Disruption of this synthesis is lethal to the bacteria. The assay determined the compound's ability to inhibit LpxC, which is the first enzyme in the biosynthetic pathway for LPS (measured as IC50). Additionally, MICs (minimal inhibitory concentrations) were determined for several bacteria. The specific protocols are described below:
A) IC50 Assay, LpxC Enzyme from P. aeruginosa (Labeled as PA LpxC Enzyme IC50):
At the end of 1 hour, 5 ul of 1 N HCl was added to stop the enzyme reaction, the plates were centrifuged, and then processed with the BioTrove Rapidfire HTMS Mass Spectrometry System. A no-enzyme control was used in calculating the IC50 values from the percent conversion values.

[4] = tested on: Escherichia coli EC-1: VOGEL, mouse virulent; assay: MIC determination (CLSI), EC-1; type: cell-based; details: read-out: EC-1 MIC
Protocol: as §1, §2, §3, §4
3) Escherichia coli EC-1: VOGEL, mouse virulent labeled as EC-1 in Table 2;

`COc1ccc(-c2ccn(CC[C@](C)(C(=O)NO)S(C)(=O)=O)c(=O)c2)c(F)c1F` [(2R)-4-[4-(2,3-difluoro-4-methoxyphenyl)-2-oxopyridin-1(2H)-yl]-N-hydroxy-2-methyl-2-(methylsulfonyl)butanamide] was tested, and the MIC [1] was 1 µg/mL (≈ 2.32 µM), the MIC [2] was > 64 µg/mL and the IC50 [3] was 0.166 nM. It also gave an MIC [4] of 0.015 µg/mL (≈ 0.0348 µM).

For `C[C@@](CCn1ccc(-c2ccc(-c3nccs3)cc2)cc1=O)(C(=O)NO)S(C)(=O)=O` [(2R)-N-hydroxy-2-methyl-2-(methylsulfonyl)-4-{2-oxo-4-[4-(1,3-thiazol-2-yl)phenyl]pyridin-1(2H)-yl}butanamide], the MIC [1] was 0.5 µg/mL (≈ 1.12 µM), the MIC [2] was > 64 µg/mL and the IC50 [3] was 0.176 nM. The MIC [4] was 0.06 µg/mL (≈ 0.134 µM).

In the case of `C[C@@](CCn1cnc(-c2ccc(-n3nccn3)cc2)cc1=O)(C(=O)NO)S(C)(=O)=O` [(2R)-N-hydroxy-2-methyl-2-(methylsulfonyl)-4-{6-oxo-4-[4-(2H-1,2,3-triazol-2-yl)phenyl]pyrimidin-1(6H)-yl}butanamide], the MIC [1] is reported as 0.5 µg/mL (≈ 1.16 µM), the MIC [2] is reported as > 64 µg/mL and the MIC [4] is reported as 0.06 µg/mL (≈ 0.139 µM).

In the case of `COc1cnn(-c2ccc(-c3ccn(CC[C@](C)(C(=O)NO)S(C)(=O)=O)c(=O)c3)cc2)n1` [(2R)-N-hydroxy-4-{4-[4-(4-methoxy-2H-1,2,3-triazol-2-yl)phenyl]-2-oxopyridin-1(2H)-yl}-2-methyl-2-(methylsulfonyl)butanamide], the MIC [1] is reported as 0.5 µg/mL (≈ 1.08 µM), the MIC [2] is reported as > 64 µg/mL and the IC50 [3] is reported as 0.125 nM. It also gave an MIC [4] of 0.03 µg/mL (≈ 0.065 µM).

With `C[C@@](CCn1ccc(-c2ccc(-n3nccn3)cc2)cc1=O)(C(=O)NO)S(C)(=O)=O` [(R)-4-(4-(4-(2H-1,2,3-Triazol-2-yl)phenyl)-2-oxopyridin-1(2H)-yl)-N-hydroxy-2-methyl-2-(methylsulfonyl)butanamide] the MIC [1] was 0.5 µg/mL (≈ 1.16 µM), the MIC [2] was > 64 µg/mL and the MIC [4] was 0.06 µg/mL (≈ 0.139 µM).
